Data: patent US20250129054A1 (Terran Biosciences Inc., priority 2022, published 2025)

Assay: Serial tail vein bleed PK study in SD rats: methylone measured in plasma after IV or oral methylone or oral methylone prodrugs
Format: in vivo, Sprague Dawley rats
Details: 10 mg/kg, rat
Procedure: A pharmacokinetic (PK) study was performed in three male Sprague-Dawley (SD) rats following intravenous (IV) and oral (PO) administration of methylone at 1 mg/kg (IV) and 10 mg/kg (PO) respectively, or test compounds (prodrugs of methylone) at 10 mg/kg (PO). Parent compound (methylone) was measured in plasma.
Samples were sent for method optimization and measurement of parent compound (methylone) via unique calibration lines and following acceptance QC's. Dose formulation concentrations were also measured, and PK parameters were determined (Cmax (ng/mL), Tmax (hr), Cl (ml/min/kg), Vdss (L/kg), t½(hr), AUC0-t (ng/mL*hr), AUC0-inf (ng/mL*hr), MIRT (hr), Bioavailability ([…]) where warranted) using WinNon Lin software. Data (including bioanalytical results and assay performance) were reported in a tabulated format.
Formulation for PO Administration: For PO dosing, the prodrug was formulated in 10% DMSO/20% PEG400/70% water to a concentration of 2 mg free metabolite material/mL. This provided a dose of 10 mg free metabolite/kg when the prodrug was administered PO in 5 mL/kg dosing volumes.
Formulation for IV administration: For IV dosing, rac-methylone was formulated as solution in saline to a concentration of 0.5 mg free metabolite material/mL. This provided a dose of 1 mg free metabolite/kg when administered IV in 2 mL/kg dosing volumes.
The pharmacokinetic properties of the synthesized methylone prodrugs after oral administration in a rat model were assessed. The concentration of methylone was measured in each rat at various sampling timepoints after IV or oral administration of rac-methylone or the synthesized methylone prodrugs to rats.
Dose formulations were made at equivalent concentrations of active compound (methylone) adjusted for molecular weight of the compounds. The synthesized methylone prodrugs or analogs were dosed at 10 mg/kg oral (PO) nominal dose. Nominal doses were used in PK parameter determinations. The parent compound (methylone) was dosed at 1 mg/kg intravenous (IV) and 10 mg/kg (PO).

[1] = 0.500 h after oral dosing of the prodrug, individual animals
[2] = 0.500 h after oral dosing of the prodrug, mean
[3] = 1.00 h after oral dosing of the prodrug, individual animals
[4] = 1.00 h after oral dosing of the prodrug, mean
[5] = 2.00 h after oral dosing of the prodrug, individual animals
[6] = 2.00 h after oral dosing of the prodrug, mean
[7] = 4.00 h after oral dosing of the prodrug, individual animals
[8] = 4.00 h after oral dosing of the prodrug, mean
[9] = 7.00 h after oral dosing of the prodrug, individual animals
[10] = 7.00 h after oral dosing of the prodrug, mean
[11] = 24.0 h after oral dosing of the prodrug, individual animals
[12] = 24.0 h after oral dosing of the prodrug, mean

| SMILES | Plasma Concentrations of metabolite methylone [1] | Plasma Concentrations of metabolite methylone [2] | Plasma Concentrations of metabolite methylone [3] | Plasma Concentrations of metabolite methylone [4] | Plasma Concentrations of metabolite methylone [5] | Plasma Concentrations of metabolite methylone [6] | Plasma Concentrations of metabolite methylone [7] | Plasma Concentrations of metabolite methylone [8] | Plasma Concentrations of metabolite methylone [9] | Plasma Concentrations of metabolite methylone [10] | Plasma Concentrations of metabolite methylone [11] | Plasma Concentrations of metabolite methylone [12] |
| --- | --- | --- | --- | --- | --- | --- | --- | --- | --- | --- | --- | --- |
| CC(C(=O)c1ccc2c(c1)OCO2)N(C)C(=O)OC(C)(C)C (stereo not drawn) [Compound 2A, tert-Butyl N-[2-(1,3-benzodioxol-5-yl)-1-methyl-2-oxo-ethyl]-N-methyl-carbamate] | BLQ (Below Lower Limit of Quantification (0.5 ng/mL)) | BLQ (Below Lower Limit of Quantification (0.5 ng/mL)) | BLQ (Below Lower Limit of Quantification (0.5 ng/mL)) | BLQ (Below Lower Limit of Quantification (0.5 ng/mL)) | BLQ (Below Lower Limit of Quantification (0.5 ng/mL)) | BLQ (Below Lower Limit of Quantification (0.5 ng/mL)) | BLQ (Below Lower Limit of Quantification (0.5 ng/mL)) | BLQ (Below Lower Limit of Quantification (0.5 ng/mL)) | BLQ (Below Lower Limit of Quantification (0.5 ng/mL)) | BLQ (Below Lower Limit of Quantification (0.5 ng/mL)) | BLQ (Below Lower Limit of Quantification (0.5 ng/mL)) | BLQ (Below Lower Limit of Quantification (0.5 ng/mL)) |
| CCOC(=O)N(C)C(C)C(=O)c1ccc2c(c1)OCO2 (stereo not drawn) [Compound 1A, Ethyl N-[2-(1,3-benzodioxol-5-yl)-1-methyl-2-oxo-ethyl]-N-methyl-carbamate] | BLQ (Below Lower Limit of Quantification (0.5 ng/mL)) | BLQ (Below Lower Limit of Quantification (0.5 ng/mL)) | BLQ (Below Lower Limit of Quantification (0.5 ng/mL)) | BLQ (Below Lower Limit of Quantification (0.5 ng/mL)) | BLQ (Below Lower Limit of Quantification (0.5 ng/mL)) | BLQ (Below Lower Limit of Quantification (0.5 ng/mL)) | BLQ (Below Lower Limit of Quantification (0.5 ng/mL)) | BLQ (Below Lower Limit of Quantification (0.5 ng/mL)) | BLQ (Below Lower Limit of Quantification (0.5 ng/mL)) | BLQ (Below Lower Limit of Quantification (0.5 ng/mL)) | BLQ (Below Lower Limit of Quantification (0.5 ng/mL)) | BLQ (Below Lower Limit of Quantification (0.5 ng/mL)) |
| CC(C(=O)c1ccc2c(c1)OCO2)N(C)C(=O)CN(C)C (stereo not drawn) [Compound 3B, N-[2-(1,3-Benzodioxol-5-yl)-1-methyl-2-oxo-ethyl]-2-(dimethylamino)-N-methyl-acetamide] | BLQ (Below Lower Limit of Quantification (0.5 ng/mL)) | BLQ (Below Lower Limit of Quantification (0.5 ng/mL)) | BLQ (Below Lower Limit of Quantification (0.5 ng/mL)) | BLQ (Below Lower Limit of Quantification (0.5 ng/mL)) | BLQ (Below Lower Limit of Quantification (0.5 ng/mL)) | BLQ (Below Lower Limit of Quantification (0.5 ng/mL)) | BLQ (Below Lower Limit of Quantification (0.5 ng/mL)) | BLQ (Below Lower Limit of Quantification (0.5 ng/mL)) | BLQ (Below Lower Limit of Quantification (0.5 ng/mL)) | BLQ (Below Lower Limit of Quantification (0.5 ng/mL)) | BLQ (Below Lower Limit of Quantification (0.5 ng/mL)) | BLQ (Below Lower Limit of Quantification (0.5 ng/mL)) |
| CC(C(=O)c1ccc2c(c1)OCO2)N(C)C(=O)CCCC(=O)OC(C)(C)C (stereo not drawn) [Compound 3C, tert-Butyl 4-{[2-(2H-1,3-benzodioxol-5-yl)-1-methyl-2-oxo-ethyl]-N-methylcarbamoyl}butyrate] | BLQ (Below Lower Limit of Quantification (0.5 ng/mL)) | BLQ (Below Lower Limit of Quantification (0.5 ng/mL)) | BLQ (Below Lower Limit of Quantification (0.5 ng/mL)) | BLQ (Below Lower Limit of Quantification (0.5 ng/mL)) | BLQ (Below Lower Limit of Quantification (0.5 ng/mL)) | BLQ (Below Lower Limit of Quantification (0.5 ng/mL)) | BLQ (Below Lower Limit of Quantification (0.5 ng/mL)) | BLQ (Below Lower Limit of Quantification (0.5 ng/mL)) | BLQ (Below Lower Limit of Quantification (0.5 ng/mL)) | BLQ (Below Lower Limit of Quantification (0.5 ng/mL)) | BLQ (Below Lower Limit of Quantification (0.5 ng/mL)) | BLQ (Below Lower Limit of Quantification (0.5 ng/mL)) |
| COCCOC(=O)N(C)C(C)C(=O)c1ccc2c(c1)OCO2 (stereo not drawn) [PE, 2-Methoxyethyl N-[2-(1,3-benzodioxol-5-yl)-1-methyl-2-oxo-ethyl]-N-methyl-carbamate] | BLQ (Below Lower Limit of Quantification (0.5 ng/mL)) | BLQ (Below Lower Limit of Quantification (0.5 ng/mL)) | BLQ (Below Lower Limit of Quantification (0.5 ng/mL)) | BLQ (Below Lower Limit of Quantification (0.5 ng/mL)) | BLQ (Below Lower Limit of Quantification (0.5 ng/mL)) | BLQ (Below Lower Limit of Quantification (0.5 ng/mL)) | BLQ (Below Lower Limit of Quantification (0.5 ng/mL)) | BLQ (Below Lower Limit of Quantification (0.5 ng/mL)) | BLQ (Below Lower Limit of Quantification (0.5 ng/mL)) | BLQ (Below Lower Limit of Quantification (0.5 ng/mL)) | BLQ (Below Lower Limit of Quantification (0.5 ng/mL)) | BLQ (Below Lower Limit of Quantification (0.5 ng/mL)) |
| CC(C(=O)c1ccc2c(c1)OCO2)N(C)C(=O)[C@H](CCCCNC(=O)OC(C)(C)C)NC(=O)OC(C)(C)C (stereo partly drawn) [Compound 3E, tert-Butyl N-[(5S)-6-[[2-(1,3-benzodioxol-5-yl)-1-methyl-2-oxo-ethyl]-methyl-amino]-5-(tert-butoxycarbonylamino)-6-oxo-hexyl]carbamate] | BLQ (Below Lower Limit of Quantification (0.5 ng/mL)) | BLQ (Below Lower Limit of Quantification (0.5 ng/mL)) | BLQ (Below Lower Limit of Quantification (0.5 ng/mL)) | BLQ (Below Lower Limit of Quantification (0.5 ng/mL)) | BLQ (Below Lower Limit of Quantification (0.5 ng/mL)) | BLQ (Below Lower Limit of Quantification (0.5 ng/mL)) | BLQ (Below Lower Limit of Quantification (0.5 ng/mL)) | BLQ (Below Lower Limit of Quantification (0.5 ng/mL)) | BLQ (Below Lower Limit of Quantification (0.5 ng/mL)) | BLQ (Below Lower Limit of Quantification (0.5 ng/mL)) | BLQ (Below Lower Limit of Quantification (0.5 ng/mL)) | BLQ (Below Lower Limit of Quantification (0.5 ng/mL)) |
